Patent US11230532B2, “Pyrimidines and variants thereof, and uses therefor” (Afferent Pharmaceuticals Inc., priority 2016, dated 2022)

Assays:
[1] = target: T1, human P2X3 receptor (homomeric P2X3 channels) (Homo sapiens, UniProt P56373); experiment: FlexStation calcium fluorescence assay, homomeric P2X3 channels (HEK-hP2X3 cells); format: cell-based; details: for IC50: HEK293 cells stably transfected with human P2X3, agonist 1 μM α,β-meATP, highest concentration tested 10 μM, read-out: Average pIC50 P2X3 (converted); for Selectivity P2X3/P2X2/3: potency ratio P2X3 over P2X2/3 from pIC50s; for Selectivity, X = S: potency ratio P2X3 over P2X2/3
T1 construct: expressed in transfected cells; host or cells: HEK293 human embryonic kidney cells (HEK-hP2X3)
T1 sequence (P56373 1-397): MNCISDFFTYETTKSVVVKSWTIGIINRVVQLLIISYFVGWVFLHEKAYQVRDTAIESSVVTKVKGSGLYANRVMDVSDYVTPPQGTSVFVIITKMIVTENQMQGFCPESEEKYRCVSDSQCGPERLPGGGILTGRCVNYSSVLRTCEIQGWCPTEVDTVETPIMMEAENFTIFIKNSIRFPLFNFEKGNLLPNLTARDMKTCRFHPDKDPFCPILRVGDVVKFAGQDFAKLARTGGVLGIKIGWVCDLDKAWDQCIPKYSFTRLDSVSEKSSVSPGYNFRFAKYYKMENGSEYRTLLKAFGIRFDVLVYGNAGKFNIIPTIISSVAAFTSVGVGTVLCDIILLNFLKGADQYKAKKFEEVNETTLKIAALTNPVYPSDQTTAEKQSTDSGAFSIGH
Experimental: (§1) 1321N1 human astrocytoma and HEK293 human embryonic kidney cells were stably transfected with human P2X2 and P2X3 receptor subunits to form heteromeric P2X2/3 channels and passaged in flasks. Additionally, HEK293 cells were stably transfected with human P2X3 receptor subunits to form homomeric P2X3 channels.
(§2) Approximately 24 hours before the FlexStation calcium fluorescence experiment, cells were released from their flasks, centrifuged and re-suspended in nutrient medium. The cells were aliquoted into black-wall, clear-bottom 96 well plates at a density of 25,000 cells per well and incubated overnight in a humidified, CO2-enriched (5%) atmosphere at 37° C.
(§3) On the day of the experiment, cells were washed with assay buffer (calcium- and magnesium-free Hank's balanced salt solution, 20 mM HEPES, 2 mM CaCl2; AB) and loaded with 4 μM Fluo-4 (P2X2/3) or Calcium 6 (Molecular Devices, according to manufacturer's instructions; P2X3) calcium-sensitive fluorescent dye in 100 μL AB.
(§4) After 1 hour of dye loading at 37° C., 1321N1-hP2X2/3 cells were washed two times with AB and test compound or vehicle added to each well in a total volume of 150 μL AB. HEK-hP2X3 cells were not washed because the Calcium 6 dye kit includes an extracellular dye that quenches unabsorbed Calcium 6 dye; test compound or vehicle were added directly to the assay plates to achieve the appropriate concentration of test compound in a total volume of 150 μL AB.
(§5) After 20 minutes incubation at RT and protected from light, the assay plates were loaded into the FlexStation microplate reader and baseline fluorescence measured with an excitation wavelength of 485 nm and emission wavelength readings centered at 525 nm (515 nm cut off).
(§6) The agonist was dispensed by the FlexStation during fluorescence measurement to construct agonist activation and antagonist inhibition curves. The final agonist concentration for inhibition was 1 μM α,β-meATP for P2X3 and 3 μM ATP for P2X2/3. Peak fluorescence was measured and curves generated using a four parameter nonlinear regression equation.

[2] = target: T2, human P2X2/3 receptor (heteromeric P2X2/3 channels) (Homo sapiens, UniProt P56373+Q9UBL9); experiment: FlexStation calcium fluorescence assay, heteromeric P2X2/3 channels (1321N1-hP2X2/3 cells); format: cell-based; details: agonist 3 μM ATP, highest concentration tested 10 μM, read-out: Average pIC50 P2X2/3 (converted)
T2 construct: expressed in transfected cells; host or cells: 1321N1 human astrocytoma cells (1321N1-hP2X2/3)
T2 sequence (P56373 1-397): T1 sequence (P56373 1-397)
T2 sequence (Q9UBL9 1-471): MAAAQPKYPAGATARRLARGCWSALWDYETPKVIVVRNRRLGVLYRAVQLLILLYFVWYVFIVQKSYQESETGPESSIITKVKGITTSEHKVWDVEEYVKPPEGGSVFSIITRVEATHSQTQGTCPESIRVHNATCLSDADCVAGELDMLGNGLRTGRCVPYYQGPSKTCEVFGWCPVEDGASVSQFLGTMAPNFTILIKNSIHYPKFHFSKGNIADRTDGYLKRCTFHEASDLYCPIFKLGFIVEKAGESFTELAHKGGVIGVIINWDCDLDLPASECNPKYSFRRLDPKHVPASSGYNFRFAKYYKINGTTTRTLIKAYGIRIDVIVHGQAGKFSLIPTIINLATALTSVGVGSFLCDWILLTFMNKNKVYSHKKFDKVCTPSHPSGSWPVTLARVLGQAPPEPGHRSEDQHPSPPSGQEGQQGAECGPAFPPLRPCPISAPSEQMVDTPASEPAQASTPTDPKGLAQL
Experimental: as §1, §2, §3, §4, §5, §6

Row | Structure (SMILES) | IC50 [1] [nM] | Selectivity P2X3/P2X2/3 [1] | IC50 [2] [µM] | Selectivity, X = S [1]
1 | COc1nc(C(C)C)c(Sc2cnc(N)nc2N)cc1S(N)(=O)=O [Compound 27] | 79.4 | 7.3 | 0.631 | –
2 | COc1ccc(Oc2cnc(N)nc2N)c(C(C)C)n1 [Compound 14] | – | >7.1 | – | –
3 | C#Cc1cc(Sc2cnc(N)nc2N)c(C(C)C)cc1OC [Compound 5] | – | 97 | – | –
4 | COc1cc(Sc2cnc(N)nc2N)c(C(C)C)cc1OC [Compound 1] | – | >100 | – | greater than 100
5 | COc1cc(C(C)C)c(Sc2cnc(N)nc2N)cc1C(=O)O [Compound 12] | – | >2 | – | –
6 | COc1nc(C(C)C)c(Sc2cnc(N)nc2N)cc1Br [Compound 24] | 100 | 4 | 0.398 | –
7 | COc1nc(C(C)C)c(Sc2cnc(N)nc2N)cc1C#N [Compound 26] | 7940 | >1 | > 10 | –
8 | C#Cc1cc(Oc2cnc(N)nc2N)c(C(C)C)nc1OC [Compound 19] | – | 28 | – | –
9 | COc1ccc(Sc2cnc(N)nc2N)c(C(C)C)n1 [Compound 23] | 3980 | >3 | > 10 | –
10 | COc1cc(C(C)C)c(Sc2cnc(N)nc2N)cc1S(N)(=O)=O [Compound 3] | – | >67 | – | –
11 | COc1cc(Oc2cnc(N)nc2N)c(C(C)C)nc1OC [Compound 13] | – | 5.2 | – | –
12 | COc1cc(C(C)C)c(Sc2cnc(N)nc2N)cc1S(C)(=O)=O [Compound 2] | – | >18 | – | –
13 | COc1cc(C(C)C)c(Sc2cnc(N)nc2N)cc1I [Compound 4] | – | 48 | – | –
14 | COc1cc(C(C)C)c(S(=O)(=O)c2cnc(N)nc2N)cc1OC [Comparative Compound 2, reference compound] | > 10000 | – | > 10 | –
15 | COc1cc(C(C)C)c(Sc2cnc(N)nc2N)cc1S(C)(=O)=O [C, X = S] | – | – | – | >18
16 | COc1nc(C(C)C)c(Oc2cnc(N)nc2N)cc1C(F)(F)F [Compound 18] | – | 23 | – | –
17 | COc1cc(C(C)C)c(Sc2cnc(N)nc2N)cc1Cl [Compound 9] | – | >56 | – | –
18 | CCc1cc(OC)c(I)cc1Sc1cnc(N)nc1N [Compound 21] | 398 | >24 | > 10 | –
19 | COc1cc(C(C)C)c(Sc2cnc(N)nc2N)cc1I [B, X = S] | – | – | – | 48
20 | CCc1cc(OC)c(S(C)(=O)=O)cc1Sc1cnc(N)nc1N [Compound 22] | 3980 | >3 | > 10 | –
21 | COc1cc(Sc2cnc(N)nc2N)c(C(C)C)cc1OC [A, X = S] | – | – | – | >100
22 | COc1nc(C(C)C)c(Oc2cnc(N)nc2N)cc1C#N [Compound 17] | – | >10 | – | –
23 | COc1nc(C(C)C)c(Oc2cnc(N)nc2N)cc1S(C)(=O)=O [Compound 16] | – | >145 | – | –
24 | COc1cc(C(C)C)c([S+]([O-])c2cnc(N)nc2N)cc1OC (stereo not drawn) [Comparative Compound 1, reference compound] | > 10000 | – | > 10 | –
25 | COc1cc(C(C)C)c(Sc2cnc(N)nc2N)cc1Br [Compound 8] | – | >47 | – | –
26 | CC#Cc1cc(Sc2cnc(N)nc2N)c(C(C)C)cc1OC [Compound 6] | – | >13 | – | –
27 | COc1nc(C(C)C)c(Sc2cnc(N)nc2N)cc1S(C)(=O)=O [Compound 25] | 200 | >52 | > 10 | –
28 | COc1cc(C(C)C)c(Sc2cnc(N)nc2N)cc1-c1nnn[nH]1 [Compound 11] | – | >58 | – | –
29 | COc1nc(C(C)C)c(Oc2cnc(N)nc2N)cc1S(N)(=O)=O [Compound 20] | – | 19 | – | –
30 | COc1cc(C(C)C)c(Sc2cnc(N)nc2N)cc1C [Compound 7] | – | >34 | – | –

Other lines, results leading:

Row | IC50 [1] [nM] | Selectivity P2X3/P2X2/3 [1] | IC50 [2] [µM] | Selectivity, X = S [1] | Structure (SMILES)
31 | 50.1 | 3.9 | 0.2 | – | C#Cc1cc(Sc2cnc(N)nc2N)c(C(C)C)nc1OC [Compound 29]
32 | 794 | 8.3 | 6.31 | – | COc1nc(C(C)C)c(Sc2cnc(N)nc2N)cc1C(F)(F)F [Compound 34]
33 | 63.1 | 28 | 1.58 | – | COc1cc(Nc2cnc(N)nc2N)c(C(C)C)cc1OC [Compound 30]
34 | 3980 | >2.5 | > 10 | – | COc1nc(C(C)C)c(Sc2cnc(N)nc2N)cc1SC(F)(F)F [Compound 31]
35 | 200 | >48 | > 10 | – | COc1nc(C(C)C)c(Sc2cnc(N)nc2N)cc1Cl [Compound 38]
36 | 126 | >73 | > 10 | – | COc1cc(C(C)C)c(Nc2cnc(N)nc2N)cc1S(C)(=O)=O [Compound 37]
37 | 25.1 | >370 | > 10 | – | COc1nc(C(C)C)c(Nc2cnc(N)nc2N)cc1S(C)(=O)=O [Compound 36]
38 | 3160 | >3.4 | > 10 | – | COc1nc(C(C)C)c(Oc2cnc(N)nc2N)cc1S(C)(=N)=O (stereo not drawn) [Compound 43]
39 | 100 | 10 | 1 | – | COc1nc(C(C)C)c(Oc2cnc(N)nc2N)nc1C(F)(F)F [Compound 46]
40 | 10 | 225 | 2 | – | COc1cc(Nc2cnc(N)nc2N)c(C(C)C)nc1OC [Compound 44]
41 | 631 | 2.1 | 1.26 | – | COc1nc(C(C)C)c(Oc2cnc(N)nc2N)cc1SC(F)(F)F [Compound 47]
42 | 10 | 34 | 0.398 | – | COc1nc(C(C)C)c(Nc2cnc(N)nc2N)cc1Cl [Compound 32]
43 | 12.6 | 41 | 0.501 | – | COc1nc(C(C)C)c(Oc2cnc(N)nc2N)cc1SC [Compound 41]
44 | 39.8 | 198 | 7.94 | – | COc1nc(C(C)C)c(Nc2cnc(N)nc2N)cc1C(F)(F)F [Compound 35]
45 | – | – | – | >50 | COc1cc(C(C)C)c(Sc2cnc(N)nc2N)cc1Cl [D, X = S]
46 | 79.4 | >123 | > 10 | – | COc1cc(C(C)C)c(Nc2cnc(N)nc2N)cc1C(F)(F)F [Compound 40]
47 | 1580 | >6.0 | > 10 | – | COc1nc(C(C)C)c(Oc2cnc(N)nc2N)nc1N(C)C [Compound 45]
48 | 316 | >33 | > 10 | – | COc1nc(C(C)C)c(Oc2cnc(N)nc2N)cc1[S+](C)[O-] (stereo not drawn) [Compound 42]
49 | 25.1 | 26 | 0.794 | – | COc1nc(C(C)C)c(Oc2cnc(N)nc2N)cc1Cl [Compound 33]
50 | 794 | 7.2 | 6.31 | – | CC#Cc1cc(Sc2cnc(N)nc2N)c(C(C)C)nc1OC [Compound 28]
51 | 25.1 | 208 | 5.01 | – | COc1cc(C(C)C)c(Nc2cnc(N)nc2N)cc1Cl [Compound 39]
